# In patent US20240132431A1, “METHOD FOR ALKYLATING ACIDIC FUNCTIONAL GROUP” (Chugai Seiyaku Kabushiki Kaisha, priority 2021, published 2024):
# Biological target: T1, Bcl-2 protein (Recombinant Human Bcl-2 Protein) (Homo sapiens, UniProt P10415)
# T1 construct: purchased Novus NBP2-34889
# Assay: Binding evaluation of mixture library compounds to Bcl-2 using AS-MS (affinity selection mass spectrometry)
# Details: for ASMS ratio (%) n = 1 / ASMS ratio (%) n = 2: ASMS Ratio(%)=(A−C)/B×100; for ASMS ratio (%) n = 1: replicate n = 1; for ASMS ratio (%) n = 2: replicate n = 2
# Method in brief: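 Bcl-2 binding is scored from LC/MS signal retained with protein through gel-filtration spin columns, normalised to unfiltered and protein-free controls. Incubation: 20 μM protein, […] per compound, 1 h, 23° C.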
# [1] = AS-MS, mixture of 1200 compounds, Bcl-2
# [2] = AS-MS on the mixture of 1200 library compounds
# T1 sequence (P10415 whole entry): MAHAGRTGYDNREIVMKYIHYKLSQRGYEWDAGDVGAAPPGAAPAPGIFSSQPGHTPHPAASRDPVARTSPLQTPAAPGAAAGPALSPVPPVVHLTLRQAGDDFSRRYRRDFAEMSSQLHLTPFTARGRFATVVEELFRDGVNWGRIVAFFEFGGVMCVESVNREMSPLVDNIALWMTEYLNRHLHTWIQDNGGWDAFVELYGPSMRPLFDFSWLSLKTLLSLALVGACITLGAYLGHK
molecule,measurement,setting,value
"CCOc1cncc(-c2cc(CN3CCN(c4ccc(C(=O)NS(C)(=O)=O)cc4)CC3)cc(C(F)(F)F)c2)c1 [B2I062-01, 4-[4-[[3-(5-Ethoxypyridin-3-yl)-5-(trifluoromethyl)phenyl]methyl]piperazin-1-yl]-N-methylsulfonylbenzamide]",ASMS ratio (%),n = 1,0.0%
same,ASMS ratio (%),n = 2,0.0%
4-[4-[[4-(5-Ethoxypyridin-3-yl)-3-methylphenyl]methyl]piperazin-1-yl]-N-propylbenzamide [B1M064-01],ASMS ratio (%) n = 1,[1],5.4%
same,ASMS ratio (%) n = 2,[1],−4.3%
"CCOc1cncc(-c2ccc(C(=O)N3CCN(c4ccc(C(=O)NS(=O)(=O)C(C)(C)C)nn4)CC3)cc2C)c1 [B2L004-01, N-tert-Butylsulfonyl-6-[4-[4-(5-ethoxypyridin-3-yl)-3-methylbenzoyl]piperazin-1-yl]pyridazine-3-carboxamide]",ASMS ratio (%),n = 1,5.5%
same,ASMS ratio (%),n = 2,9.3%
"CCOc1cccc(-c2ccc(CN3CCN(c4ccc(C(=O)NS(=O)(=O)CCC(F)(F)F)cc4)CC3)cc2F)c1 [B2N051-01, 4-[4-[[4-(3-Ethoxyphenyl)-3-fluorophenyl]methyl]piperazin-1-yl]-N-(3,3,3-trifluoropropylsulfonyl)benzamide]",ASMS ratio (%),n = 1,0.0%
same,ASMS ratio (%),n = 2,0.0%
"CCOc1cccc(-c2ccc(C(C)N3CCN(c4ccc(C(=O)NCC56CC7CC(CC(C7)C5)C6)cc4)CC3)c(F)c2)c1 (stereo not drawn) [B1A099-01, N-(1-Adamantylmethyl)-4-[4-[1-[4-(3-ethoxyphenyl)-2-fluorophenyl]ethyl]piperazin-1-yl]benzamide]",ASMS ratio (%) n = 1,[1],0.9%
same,ASMS ratio (%) n = 2,[1],−0.9%
"CCOc1cccc(-c2csc(CN3CCN(c4ccc(C(=O)NS(=O)(=O)CCC(F)(F)F)nn4)CC3)c2)c1 [B2N093-01, 6-[4-[[4-(3-Ethoxyphenyl)thiophen-2-yl]methyl]piperazin-1-yl]-N-(3,3,3-trifluoropropylsulfonyl)pyridazine-3-carboxamide]",ASMS ratio (%),n = 1,0.0%
CCOc1cccc(-c2csc(CN3CCN(c4ccc(C(=O)Nc5ccc(OC)cc5)cc4)CC3)c2)c1 [B1O067-01],ASMS ratio (%) n = 1,[2],0.0%
same,ASMS ratio (%) n = 2,[2],0.0%
"CCOc1cncc(-c2csc(C(=O)N3CCN(c4ccc(C(=O)NS(=O)(=O)C(C)(C)C)nn4)CC3)c2)c1 [B2L002-01, N-tert-Butylsulfonyl-6-[4-[4-(5-ethoxypyridin-3-yl)thiophene-2-carbonyl]piperazin-1-yl]pyridazine-3-carboxamide]",ASMS ratio (%),n = 1,0.0%
same,ASMS ratio (%),n = 2,0.0%
"CCOc1cccc(C#Cc2cc(C(=O)N3CCN(c4ccc(C(=O)NS(=O)(=O)c5ccc(NCCSc6ccccc6)c(C(F)(F)F)c5)cc4)CC3)cc(C(F)(F)F)c2)c1 [B2R041-01, 4-[4-[3-[2-(3-Ethoxyphenyl)ethynyl]-5-(trifluoromethyl)benzoyl]piperazin-1-yl]-N-[4-(2-phenylsulfanylethylamino)-3-(trifluoromethyl)phenyl]sulfonylbenzamide]",ASMS ratio (%),n = 1,18.0%
same,ASMS ratio (%),n = 2,0.0%
"CCOc1cncc(-c2ccc(C(=O)N3CCN(c4ccc(C(=O)NS(=O)(=O)c5ccc(NCCSc6ccccc6)c(C(F)(F)F)c5)nn4)CC3)cc2C)c1 [B2R004-01, 6-[4-[4-(5-Ethoxypyridin-3-yl)-3-methylbenzoyl]piperazin-1-yl]-N-[4-(2-phenylsulfanylethylamino)-3-(trifluoromethyl)phenyl]sulfonylpyridazine-3-carboxamide]",ASMS ratio (%),n = 1,0.0%
same,ASMS ratio (%),n = 2,0.0%
"CCOc1cccc(-c2ccccc2CCC(=O)N2CCN(c3ccc(C(=O)NCC45CC6CC(CC(C6)C4)C5)nn3)CC2)c1 [B1A011-01, N-(1-Adamantylmethyl)-6-[4-[3-[2-(3-ethoxyphenyl)phenyl]propanoyl]piperazin-1-yl]pyridazine-3-carboxamide]",ASMS ratio (%) n = 1,[1],11.2%
same,ASMS ratio (%) n = 2,[1],−13.2%
"CCOc1cncc(-c2cc(OC)c(CN3CCN(c4ccc(C(=O)NS(=O)(=O)c5ccc(NCCSc6ccccc6)c([N+](=O)[O-])c5)nn4)CC3)c(OC)c2)c1 [B2Q086-01, 6-[4-[[4-(5-Ethoxypyridin-3-yl)-2,6-dimethoxyphenyl]methyl]piperazin-1-yl]-N-[3-nitro-4-(2-phenylsulfanylethylamino)phenyl]sulfonylpyridazine-3-carboxamide]",ASMS ratio (%) n = 1,"AS-MS, mixture library, Bcl-2",−39.4%
same,ASMS ratio (%) n = 2,"AS-MS, mixture library, Bcl-2",0.0%
"6-[4-[[4-(3-Ethoxyphenyl)-2,6-dimethoxyphenyl]methyl]piperazin-1-yl]-N-propylpyridazine-3-carboxamide [B1M021-01]",ASMS ratio (%) n = 1,[1],0.0%
same,ASMS ratio (%) n = 2,[1],0.0%
"CCOc1cccc(-c2cnn(-c3cc(C(=O)N4CCN(c5ccc(C(=O)NCC67CC8CC(CC(C8)C6)C7)nn5)CC4)cc(C(F)(F)F)c3)c2)c1 [B1A021-01, N-(1-Adamantylmethyl)-6-[4-[3-[4-(3-ethoxyphenyl)pyrazol-1-yl]-5-(trifluoromethyl)benzoyl]piperazin-1-yl]pyridazine-3-carboxamide]",ASMS ratio (%) n = 1,[1],−1.3%
same,ASMS ratio (%) n = 2,[1],−3.7%
"CCOc1cccc(-c2ccc(C(=O)N3CCN(c4ccc(C(=O)N(C)CC56CC7CC(CC(C7)C5)C6)cc4)CC3)cc2F)c1 [B3A027-01, N-(1-Adamantylmethyl)-4-[4-[4-(3-ethoxyphenyl)-3-fluorobenzoyl]piperazin-1-yl]-N-methylbenzamide]",ASMS ratio (%) n = 1,[2],−0.7%
same,ASMS ratio (%) n = 2,[2],−1.6%
"CCOc1cccc(-c2cc(C(=O)N3CCN(c4ccc(C(=O)NS(=O)(=O)c5ccc(NCCSc6ccccc6)c(C(F)(F)F)c5)nn4)CC3)cc(C(F)(F)F)c2)c1 [B2R017-01, 6-[4-[3-(3-ethoxyphenyl)-5-(trifluoromethyl)benzoyl]piperazin-1-yl]-N-[4-(2-phenylsulfanylethylamino)-3-(trifluoromethyl)phenyl]sulfonylpyridazine-3-carboxamide]",ASMS ratio (%),n = 1,32.9%
same,ASMS ratio (%),n = 2,27.2%
CCCNC(=O)c1ccc(N2CCN(Cc3cc(OC(F)(F)F)cc(-c4cccc(OCC)c4)c3)CC2)nn1 [B1M033-01],ASMS ratio (%) n = 1,[1],0.3%
same,ASMS ratio (%) n = 2,[1],0.0%
"CCOc1cncc(-c2cc(CN3CCN(c4ccc(C(=O)NCC(F)(F)F)nn4)CC3)cc(OC(F)(F)F)c2)c1 [B1K090-01, 6-[4-[[3-(5-Ethoxypyridin-3-yl)-5-(trifluoromethoxy)phenyl]methyl]piperazin-1-yl]-N-(2,2,2-trifluoroethyl)pyridazine-3-carboxamide]",ASMS ratio (%) n = 1,[1],−0.6%
same,ASMS ratio (%) n = 2,[1],−1.9%
"CCOc1cccc(C#Cc2cncc(C(=O)N3CCN(c4ccc(C(=O)NS(=O)(=O)CC56CC7CC(CC(C7)C5)C6)nn4)CC3)c2)c1 [B2A009-01, N-(1-Adamantylmethylsulfonyl)-6-[4-[5-[2-(3-ethoxyphenyl)ethynyl]pyridine-3-carbonyl]piperazin-1-yl]pyridazine-3-carboxamide]",ASMS ratio (%) n = 1,"AS-MS, mixture library, Bcl-2",3.1%
same,ASMS ratio (%) n = 2,"AS-MS, mixture library, Bcl-2",7.2%
"CCOc1cncc(-c2cnn(-c3cc(C(=O)N4CCN(c5ccc(C(=O)N(C)CC67CC8CC(CC(C8)C6)C7)nn5)CC4)cc(C(F)(F)F)c3)c2)c1 [B3A022-01, N-(1-Adamantylmethyl)-6-[4-[3-[4-(5-ethoxypyridin-3-yl)pyrazol-1-yl]-5-(trifluoromethyl)benzoyl]piperazin-1-yl]-N-methylpyridazine-3-carboxamide]",ASMS ratio (%) n = 1,[2],4.9%
same,ASMS ratio (%) n = 2,[2],7.2%
"CCOc1cncc(-c2cc(CN3CCN(c4ccc(C(=O)N(C)CC56CC7CC(CC(C7)C5)C6)cc4)CC3)cc(OC(C)C)c2)c1 [B3A058-01, N-(1-Adamantylmethyl)-4-[4-[[3-(5-ethoxypyridin-3-yl)-5-propan-2-yloxyphenyl]methyl]piperazin-1-yl]-N-methylbenzamide]",ASMS ratio (%) n = 1,[2],5.9%
same,ASMS ratio (%) n = 2,[2],−7.6%
"CCOc1cccc(-c2ccc(CN3CCN(c4ccc(C(=O)NS(=O)(=O)C(C)(C)C)cc4)CC3)cc2C)c1 [B2L047-01, N-tert-Butylsulfonyl-4-[4-[[4-(3-ethoxyphenyl)-3-methylphenyl]methyl]piperazin-1-yl]benzamide]",ASMS ratio (%),n = 1,0.0%
same,ASMS ratio (%),n = 2,0.0%
"CCOc1cncc(C#Cc2cc(C(=O)N3CCN(c4ccc(C(=O)NS(=O)(=O)CC56CC7CC(CC(C7)C5)C6)nn4)CC3)cc(C(F)(F)F)c2)c1 [B2A020-01, N-(1-Adamantylmethylsulfonyl)-6-[4-[3-[2-(5-ethoxypyridin-3-yl)ethynyl]-5-(trifluoromethyl)benzoyl]piperazin-1-yl]pyridazine-3-carboxamide]",ASMS ratio (%) n = 1,"AS-MS, mixture library, Bcl-2",3.4%
same,ASMS ratio (%) n = 2,"AS-MS, mixture library, Bcl-2",8.9%
"CCOc1cccc(-c2ccccc2CN2CCN(c3ccc(C(=O)NS(C)(=O)=O)cc3)CC2)c1 [B2I045-01, 4-[4-[[2-(3-Ethoxyphenyl)phenyl]methyl]piperazin-1-yl]-N-methylsulfonylbenzamide]",ASMS ratio (%),n = 1,−0.3%
same,ASMS ratio (%),n = 2,0.2%
"CCOc1cncc(-c2ccccc2CCC(=O)N2CCN(c3ccc(C(=O)N(C)CC45CC6CC(CC(C6)C4)C5)cc3)CC2)c1 [B3A034-01, N-(1-Adamantylmethyl)-4-[4-[3-[2-(5-ethoxypyridin-3-yl)phenyl]propanoyl]piperazin-1-yl]-N-methylbenzamide]",ASMS ratio (%) n = 1,[2],1.3%
same,ASMS ratio (%) n = 2,[2],−0.6%
"CCOc1cccc(-c2ccc(CN3CCN(c4ccc(C(=O)Nc5ccc(OC)cc5)nn4)CC3)cc2F)c1 [B1O077-01, 6-[4-[[4-(3-Ethoxyphenyl)-3-fluorophenyl]methyl]piperazin-1-yl]-N-(4-methoxyphenyl)pyridazine-3-carboxamide]",ASMS ratio (%) n = 1,[2],4.1%
same,ASMS ratio (%) n = 2,[2],0.4%
